Measurements reported in patent publication US20250320193A1, “OXOISOINDOLINYL SUBSTITUTED PIPERIDINEDIONE DERIVATIVE AND USE THEREOF” (GLUETACS THERAPEUTICS (SHANGHAI) CO., LTD., priority 2022, published 2025).

Legend:
Assay type in all cases: cell-based
Details in all cases: hPBMC, compound 500 nM, 24 hours, Western blot
IKZF3 = IKZF3 (Homo sapiens (Human), UniProt Q96SW2+Q9UKT9); test: Western blot, substrate protein expression in hPBMC: IKZF3
Description: (§1) The effect of the compounds of the present disclosure on the expression of target proteins in cells was detected using conventional Western blot analysis.
(§2) Human peripheral blood mononuclear cells (hPBMCs) at a density of 1×10^6 cells/mL were thawed according to the PBMC Recovery Protocol (Milecell Biotechnologies Inc, Shanghai). […] After 24 hours of compounds treatment, cells were harvested and lysed in RIPA protein lysate containing phosphatase inhibitors on ice for 30-60 min, followed by centrifugation. The supernatant was aspirated as the extracted total cell protein. The protein concentration of the supernatant was determined using the conventional BCA (Bicinchoninic Acid) assay. The supernatant was then mixed with 4× SDS sample loading buffer, denatured at 95° C. for 5 minutes, and then subjected to SDS-PAGE electrophoresis on a polyacrylamide gel. Proteins were then transferred to a nitrocellulose (NC) membrane, blocked at room temperature for 1-2 h, and processed for antibody incubation and detection according to the manufacturer's instructions (Cell Signaling Technology).
(§3) Half-Maximal Degradation Concentration value (the drug concentration required for degrading proteins by 50%, abbreviated as DC50) reads method: comparing the grayscale values of Western blot bands from drug-treated samples (protein degrader compounds) with those from blank (DMSO-treated) controls, and identifying the drug concentration range at which the grayscale value is half that of the DMSO-treated control bands.
(§4) DC50 values can be calculated using ImageJ software to measure grayscale values of Western blot bands from drug-treated samples. The relationship curve between drug concentration and grayscale values is fitted to estimate the drug concentration corresponding to half the grayscale value.
(§5) Target protein remaining (%) refers to the percentage of target protein remaining in hPBMC cells after treatment with protein degrader compounds.
(§6) Calculation method for protein remaining (%): Use ImageJ software to measure grayscale values of Western blot bands from drug (protein degrader)-treated samples. The grayscale value of drug-treated bands is divided by that of internal control protein bands, and the resulting quotient is normalized to obtain the relative percentage of remaining target protein after protein degrader treatment.
(§7) Target protein degradation rate (%)=100%-target protein remaining (%).

GSPT1 = GSPT1 (Homo sapiens (Human), UniProt P15170+Q96SW2); test: Western blot, substrate protein expression in hPBMC: GSPT1
Chain of GSPT1 (P15170 whole entry): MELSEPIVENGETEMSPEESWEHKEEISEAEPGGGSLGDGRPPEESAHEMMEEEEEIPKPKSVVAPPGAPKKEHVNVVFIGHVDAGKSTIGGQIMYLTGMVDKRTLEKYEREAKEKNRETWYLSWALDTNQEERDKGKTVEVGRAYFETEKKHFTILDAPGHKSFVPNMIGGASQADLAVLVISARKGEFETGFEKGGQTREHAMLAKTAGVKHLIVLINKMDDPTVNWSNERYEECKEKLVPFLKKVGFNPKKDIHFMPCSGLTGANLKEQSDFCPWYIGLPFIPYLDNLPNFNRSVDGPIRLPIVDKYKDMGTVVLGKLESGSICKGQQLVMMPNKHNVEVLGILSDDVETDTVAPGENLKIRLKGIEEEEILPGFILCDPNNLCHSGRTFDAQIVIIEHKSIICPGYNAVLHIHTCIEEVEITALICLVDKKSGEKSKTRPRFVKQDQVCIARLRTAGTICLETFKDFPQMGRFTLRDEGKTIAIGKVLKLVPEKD
Chain of GSPT1 (Q96SW2 whole entry): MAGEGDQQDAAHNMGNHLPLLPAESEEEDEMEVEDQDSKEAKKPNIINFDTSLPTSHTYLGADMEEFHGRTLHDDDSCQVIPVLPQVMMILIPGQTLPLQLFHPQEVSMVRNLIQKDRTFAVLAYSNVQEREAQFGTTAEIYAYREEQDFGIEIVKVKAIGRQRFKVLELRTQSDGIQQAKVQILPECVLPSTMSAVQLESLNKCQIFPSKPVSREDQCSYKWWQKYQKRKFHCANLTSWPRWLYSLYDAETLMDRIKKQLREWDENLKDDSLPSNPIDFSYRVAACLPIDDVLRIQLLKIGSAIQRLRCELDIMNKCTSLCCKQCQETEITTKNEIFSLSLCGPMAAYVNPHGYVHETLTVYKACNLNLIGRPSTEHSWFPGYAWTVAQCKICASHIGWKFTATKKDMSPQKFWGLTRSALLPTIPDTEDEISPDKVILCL
Chain of GSPT1 (Q16531 whole entry partner): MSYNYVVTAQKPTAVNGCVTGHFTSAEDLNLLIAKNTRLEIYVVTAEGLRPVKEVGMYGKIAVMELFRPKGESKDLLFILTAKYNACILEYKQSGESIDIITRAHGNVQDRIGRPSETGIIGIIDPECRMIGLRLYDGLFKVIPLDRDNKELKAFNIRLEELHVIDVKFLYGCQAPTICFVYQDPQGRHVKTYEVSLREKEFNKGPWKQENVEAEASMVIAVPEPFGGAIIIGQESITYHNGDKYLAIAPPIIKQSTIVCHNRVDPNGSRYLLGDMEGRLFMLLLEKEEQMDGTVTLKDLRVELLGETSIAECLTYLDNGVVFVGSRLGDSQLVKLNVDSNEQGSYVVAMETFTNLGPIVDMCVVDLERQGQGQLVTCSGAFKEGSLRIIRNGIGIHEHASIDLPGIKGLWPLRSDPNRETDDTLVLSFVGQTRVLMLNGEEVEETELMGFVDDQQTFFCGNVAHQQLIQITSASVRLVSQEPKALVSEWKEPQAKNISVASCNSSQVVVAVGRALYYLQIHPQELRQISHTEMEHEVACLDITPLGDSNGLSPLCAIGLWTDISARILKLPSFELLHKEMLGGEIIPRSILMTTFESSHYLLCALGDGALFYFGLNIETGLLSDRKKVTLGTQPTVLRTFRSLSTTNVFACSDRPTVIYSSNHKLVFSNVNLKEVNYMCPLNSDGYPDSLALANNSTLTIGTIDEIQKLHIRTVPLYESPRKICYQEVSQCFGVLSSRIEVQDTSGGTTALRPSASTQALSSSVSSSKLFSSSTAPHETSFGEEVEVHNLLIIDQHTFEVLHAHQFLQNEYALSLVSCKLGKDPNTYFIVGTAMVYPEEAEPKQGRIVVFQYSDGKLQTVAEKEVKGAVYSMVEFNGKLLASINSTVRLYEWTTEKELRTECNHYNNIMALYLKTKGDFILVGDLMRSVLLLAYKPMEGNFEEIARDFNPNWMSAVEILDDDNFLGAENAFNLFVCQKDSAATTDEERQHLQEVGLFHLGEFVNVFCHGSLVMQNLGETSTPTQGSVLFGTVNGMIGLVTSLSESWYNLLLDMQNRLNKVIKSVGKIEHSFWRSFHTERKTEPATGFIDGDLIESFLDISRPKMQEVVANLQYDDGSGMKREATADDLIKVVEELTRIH
Description: as §1, §2, §3, §4, §5, §6, §7

IKZF1 = IKZF1 (Homo sapiens (Human), UniProt Q13422+Q96SW2); test: Western blot, substrate protein expression in hPBMC: IKZF1
Chain of IKZF1 (Q13422 whole entry): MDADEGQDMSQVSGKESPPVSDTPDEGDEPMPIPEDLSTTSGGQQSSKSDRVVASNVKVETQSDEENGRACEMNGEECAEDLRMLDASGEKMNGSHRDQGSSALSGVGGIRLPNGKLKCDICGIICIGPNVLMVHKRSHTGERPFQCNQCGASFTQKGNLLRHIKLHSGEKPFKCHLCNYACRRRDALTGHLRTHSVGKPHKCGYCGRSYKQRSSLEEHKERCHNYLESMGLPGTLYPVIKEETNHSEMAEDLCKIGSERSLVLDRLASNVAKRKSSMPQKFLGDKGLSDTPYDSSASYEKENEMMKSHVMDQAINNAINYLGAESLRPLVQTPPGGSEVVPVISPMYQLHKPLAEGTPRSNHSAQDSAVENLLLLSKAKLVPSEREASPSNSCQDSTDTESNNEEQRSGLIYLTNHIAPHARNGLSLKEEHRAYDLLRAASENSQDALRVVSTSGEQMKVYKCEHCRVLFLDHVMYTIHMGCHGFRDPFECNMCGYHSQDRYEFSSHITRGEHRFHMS
Chain of IKZF1 (Q96SW2 whole entry): as the sequence (Q96SW2 whole entry) above
Chain of IKZF1 (Q16531 whole entry partner): as the sequence (Q16531 whole entry partner) above
Description: as §1, §2, §3, §4, §5, §6, §7

Chain of IKZF3 (Q9UKT9 whole entry): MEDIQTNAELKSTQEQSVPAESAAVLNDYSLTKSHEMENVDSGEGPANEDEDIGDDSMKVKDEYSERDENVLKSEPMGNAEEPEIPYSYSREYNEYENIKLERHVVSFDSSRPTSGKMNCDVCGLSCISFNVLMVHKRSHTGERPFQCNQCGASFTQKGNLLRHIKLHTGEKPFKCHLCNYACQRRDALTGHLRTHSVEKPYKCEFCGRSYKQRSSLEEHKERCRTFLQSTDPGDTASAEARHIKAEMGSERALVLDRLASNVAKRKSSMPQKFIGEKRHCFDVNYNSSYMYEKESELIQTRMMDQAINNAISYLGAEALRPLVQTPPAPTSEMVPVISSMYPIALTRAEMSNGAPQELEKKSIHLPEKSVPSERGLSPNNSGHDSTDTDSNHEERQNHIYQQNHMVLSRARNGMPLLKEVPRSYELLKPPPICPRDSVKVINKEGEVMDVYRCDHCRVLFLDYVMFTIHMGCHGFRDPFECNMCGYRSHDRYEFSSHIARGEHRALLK
Chain of IKZF3 (Q96SW2 whole entry): as the sequence (Q96SW2 whole entry) above
Chain of IKZF3 (Q16531 whole entry partner): as the sequence (Q16531 whole entry partner) above

Row | SMILES | substrate protein remaining % IKZF3 (IKZF3) | substrate protein remaining % GSPT1 (GSPT1) | substrate protein remaining % IKZF1 (IKZF1)
1 | CC1CN(Cc2ccc3c(c2)C(=O)N(C2CCC(=O)NC2=O)C3=O)CC(C)N1C(c1ccccc1)c1ccccc1 (stereo not drawn) [GT-05968, 5-((4-benzhydryl-3,5-dimethylpiperazin-1-yl)methyl)-2-(2,6-dioxopiperidin-3-yl) isoindoline-1,3-dione] | B (B represents substrate protein remaining % > 50%) | A (A represents 0% ≤ substrate protein remaining % ≤ 50%) | B (B represents substrate protein remaining % > 50%)
2 | O=C1CCC(N2C(=O)c3ccc(C(=O)N4CC5CCC(C4)N5C(c4ccccc4)c4ccccc4)cc3C2=O)C(=O)N1 (stereo not drawn) [GT-05982, 5-(8-benzhydryl-3,8-diazabicyclo[3.2.1]octane-3-carbonyl)-2-(2,6-dioxopiperidin-3-yl) isoindoline-1,3-dione] | B (B represents substrate protein remaining % > 50%) | A (A represents 0% ≤ substrate protein remaining % ≤ 50%) | B (B represents substrate protein remaining % > 50%)
3 | C[C@@H]1CN(C(c2ccccc2)c2ccccc2)CCN1Cc1ccc2c(c1)C(=O)N(C1CCC(=O)NC1=O)C2=O (stereo partly drawn) [GT-06047, 5-(((R)-4-benzhydryl-2-methylpiperazin-1-yl)methyl)-2-(2,6-dioxopiperidin-3-yl) isoindoline-1,3-dione] | B (B represents substrate protein remaining % > 50%) | A (A represents 0% ≤ substrate protein remaining % ≤ 50%) | B (B represents substrate protein remaining % > 50%)
4 | O=C1CCC(N2C(=O)c3ccc(CN4CCN(C5c6cc(Cl)ccc6-c6ccc(Cl)cc65)CC4)cc3C2=O)C(=O)N1 (stereo not drawn) [GT-06049, 5-((4-(2,7-dichloro-9H-fluoren-9-yl)piperazin-1-yl)methyl)-2-(2,6-dioxopiperidin-3-yl) isoindoline-1,3-dione] | A (A represents 0% ≤ substrate protein remaining % ≤ 50%) | A (A represents 0% ≤ substrate protein remaining % ≤ 50%) | B (B represents substrate protein remaining % > 50%)
5 | O=C1CCC(N2C(=O)c3ccc(CN4CC5CN(C(c6ccccc6)c6ccccc6)CC5C4)cc3C2=O)C(=O)N1 (stereo not drawn) [GT-06053, 5-((5-benzhydrylhexahydropyrrolo[3,4-c]pyrrol-2 (1H)-yl)methyl)-2-(2,6-dioxopiperidin-3-yl) isoindoline-1,3-dione] | B (B represents substrate protein remaining % > 50%) | A (A represents 0% ≤ substrate protein remaining % ≤ 50%) | B (B represents substrate protein remaining % > 50%)
6 | O=C1CCC(N2C(=O)c3ccc(C(=O)N4CC5CN(C(c6ccccc6)c6ccccc6)CC5C4)cc3C2=O)C(=O)N1 (stereo not drawn) [GT-06068, 5-(5-benzhydryloctahydropyrrolo[3,4-c]pyrrole-2-carbonyl)-2-(2,6-dioxopiperidin-3-yl) isoindoline-1,3-dione] | B (B represents substrate protein remaining % > 50%) | A (A represents 0% ≤ substrate protein remaining % ≤ 50%) | B (B represents substrate protein remaining % > 50%)
7 | O=C1CCC(N2C(=O)c3ccc(CN4CCN(C(c5ccccc5F)c5ccccc5F)CC4)cc3C2=O)C(=O)N1 (stereo not drawn) [GT-06088, 5-((4-(bis(2-fluorophenyl)methyl)piperazin-1-yl)methyl)-2-(2,6-dioxopiperidin-3-yl) isoindoline-1,3-dione] | B (B represents substrate protein remaining % > 50%) | A (A represents 0% ≤ substrate protein remaining % ≤ 50%) | B (B represents substrate protein remaining % > 50%)
8 | C[C@@H]1CN(C(c2ccccc2)c2ccccc2)CCN1C(=O)c1ccc2c(c1)C(=O)N(C1CCC(=O)NC1=O)C2=O (stereo partly drawn) [GT-06094, 5-((R)-4-benzhydryl-2-methylpiperazine-1-carbonyl)-2-(2,6-dioxopiperidin-3-yl) isoindoline-1,3-dione] | B (B represents substrate protein remaining % > 50%) | A (A represents 0% ≤ substrate protein remaining % ≤ 50%) | B (B represents substrate protein remaining % > 50%)
9 | O=C1CCC(N2C(=O)c3ccc(CN4CCN(C(c5ccccc5)c5ccccc5)CC4C(F)(F)F)cc3C2=O)C(=O)N1 (stereo not drawn) [GT-06099, 5-((4-benzhydryl-2-(trifluoromethyl)piperazin-1-yl)methyl)-2-(2,6-dioxopiperidin-3-yl) isoindoline-1,3-dione] | B (B represents substrate protein remaining % > 50%) | A (A represents 0% ≤ substrate protein remaining % ≤ 50%) | B (B represents substrate protein remaining % > 50%)
10 | O=C1CCC(N2C(=O)c3ccc(CN4CCN(C(c5ccccc5)c5ccncc5)CC4)cc3C2=O)C(=O)N1 (stereo not drawn) [GT-06115, 2-(2,6-dioxopiperidin-3-yl)-5-((4-(phenyl(pyridin-4-yl)methyl)piperazin-1-yl)methyl) isoindoline-1,3-dione] | B (B represents substrate protein remaining % > 50%) | A (A represents 0% ≤ substrate protein remaining % ≤ 50%) | B (B represents substrate protein remaining % > 50%)
11 | O=C1CCC(N2Cc3c(ccc(CN4CCN(C(c5ccc(C(F)(F)F)cc5)c5ccc(C(F)(F)F)cc5)CC4)c3F)C2=O)C(=O)N1 (stereo not drawn) [GT-06200, 3-(5-((4-(bis(4-(trifluoromethyl)phenyl)methyl)piperazin-1-yl)methyl)-4-fluoro-1-oxoisoindolin-2-yl)piperidine-2,6-dione] | A (A represents 0% ≤ substrate protein remaining % ≤ 50%) | A (A represents 0% ≤ substrate protein remaining % ≤ 50%) | B (B represents substrate protein remaining % > 50%)
12 | O=C1CCC(N2Cc3cc(CN4CCN(C(c5ccc(C(F)(F)F)cc5)c5ccc(C(F)(F)F)cc5)CC4)c(F)cc3C2=O)C(=O)N1 (stereo not drawn) [GT-06201, 3-(5-((4-(bis(4-(trifluoromethyl)phenyl)methyl)piperazin-1-yl)methyl)-6-fluoro-1-oxoisoindolin-2-yl)piperidine-2,6-dione] | A (A represents 0% ≤ substrate protein remaining % ≤ 50%) | A (A represents 0% ≤ substrate protein remaining % ≤ 50%) | B (B represents substrate protein remaining % > 50%)
13 | O=C1CCC(N2C(=O)c3ccc(CN4CCN(C(c5ccc(C(F)(F)F)cc5)c5ccc(C(F)(F)F)cc5)CC4)cc3C2=O)C(=O)N1 (stereo not drawn) [GT-06203, 5-((4-(bis(4-(trifluoromethyl)phenyl)methyl)piperazin-1-yl)methyl)-2-(2,6-dioxopiperidin-3-yl) isoindoline-1,3-dione] | A (A represents 0% ≤ substrate protein remaining % ≤ 50%) | A (A represents 0% ≤ substrate protein remaining % ≤ 50%) | B (B represents substrate protein remaining % > 50%)
